{"source": "paper PMC2724842", "about": "(Biochemistry, 2009)", "key": {"WT MtIPMS": {"biological_target": "WT MtIPMS (Mycobacterium tuberculosis, UniProt P9WQB3)", "sequence (P9WQB3 whole entry)": "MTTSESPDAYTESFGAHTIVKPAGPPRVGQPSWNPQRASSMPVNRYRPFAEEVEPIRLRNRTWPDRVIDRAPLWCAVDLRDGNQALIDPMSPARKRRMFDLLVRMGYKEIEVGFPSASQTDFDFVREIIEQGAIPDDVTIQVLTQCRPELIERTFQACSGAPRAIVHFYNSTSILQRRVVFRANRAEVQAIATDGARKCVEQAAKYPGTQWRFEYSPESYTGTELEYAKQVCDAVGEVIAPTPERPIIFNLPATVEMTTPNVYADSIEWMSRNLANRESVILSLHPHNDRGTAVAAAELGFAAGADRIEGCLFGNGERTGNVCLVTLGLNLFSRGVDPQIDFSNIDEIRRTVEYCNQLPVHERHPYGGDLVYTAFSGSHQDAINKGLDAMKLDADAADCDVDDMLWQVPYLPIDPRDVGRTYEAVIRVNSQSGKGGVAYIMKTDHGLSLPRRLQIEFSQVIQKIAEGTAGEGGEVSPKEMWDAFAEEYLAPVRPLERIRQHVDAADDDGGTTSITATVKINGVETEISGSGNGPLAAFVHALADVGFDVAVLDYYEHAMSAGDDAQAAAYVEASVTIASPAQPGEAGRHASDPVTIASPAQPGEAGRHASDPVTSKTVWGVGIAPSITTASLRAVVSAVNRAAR", "assay": "Steady-state kinetic analysis", "format": "biochemical"}, "wild-type MtIPMS": {"biological_target": "wild-type MtIPMS (Mycobacterium tuberculosis, UniProt P9WQB3)", "sequence (P9WQB3 whole entry)": "as above", "format": "biochemical"}, "WT IPMS": {"biological_target": "WT IPMS (Mycobacterium tuberculosis, UniProt P9WQB3)", "sequence (P9WQB3 whole entry)": "as above", "format": "binding", "conditions": "ITC"}}, "note": "Like-named read-outs stand apart in the source and are kept apart here.", "data": [{"smiles": "CC(=O)SCCNC(=O)CCNC(=O)[C@H](O)C(C)(C)COP(=O)(O)OP(=O)(O)OC[C@H]1O[C@@H](n2cnc3c(N)ncnc32)[C@H](O)[C@@H]1OP(=O)(O)O", "note": "[Acetyl-CoA, acetyl-coenzyme A]", "values": [{"measurement": "Km", "setting": "WT MtIPMS; read-out: K1 (Km), varied substrate Acetyl-CoA", "result": "24 ± 2", "unit": "µM"}, {"measurement": "kcat1 (kcat)", "setting": "WT MtIPMS; varied substrate Acetyl-CoA", "result": "2.72 ± 0.05", "unit": "s⁻¹"}]}, {"smiles": "CC(C)C[C@H](N)C(=O)O", "note": "[L-leucine]", "values": [{"measurement": "activity retained at saturating L-leucine", "setting": "wild-type MtIPMS", "result": "approximately 10%"}, {"measurement": "β (fractional activity at saturating inhibitor)", "setting": "wild-type MtIPMS", "result": 0.1}, {"measurement": "N (stoichiometry for binding)", "setting": "WT IPMS", "result": "0.86 ± 0.02"}, {"measurement": "ΔH", "setting": "WT IPMS", "result": "0.774 ± 0.02", "unit": "kcal/mol"}, {"measurement": "ΔS", "setting": "WT IPMS", "result": 27.8, "unit": "cal/mol/K"}]}, {"smiles": "CC(C)C(=O)C(=O)O", "note": "[α-KIV, α-ketoisovalerate]", "values": [{"measurement": "Km", "setting": "WT MtIPMS; read-out: K1 (Km), varied substrate α-KIV", "result": "7.1 ± 0.5", "unit": "µM"}, {"measurement": "kcat1 (kcat)", "setting": "WT MtIPMS; varied substrate α-KIV", "result": "2.53 ± 0.05", "unit": "s⁻¹"}]}]}
